Laboratory results: patent publication US20070105836A1, “Prodrugs of muscarinic agonists and methods of treatment of neuropsychiatric disorders” (priority 2005, published 2007)

Experiment: Conversion of prodrugs to NDMC in vivo (plasma and brain levels of NDMC by LC-MS/MS after oral dosing)
Method: Male, Sprauge-Dawly rats (200-225 grams, Harlan, San Diego, Calif.) implanted with jugular vein cannulae served as experimental subjects. Rats were fasted for approximately 16 hours and then dosed orally with one of several test compounds. All test compounds were administered at a fixed dose of 10 mg/kg (freebase) in a volume of 1 mL/kg. Venous blood samples were collected 0, 30, 60 and 120 min following test compound administration. Samples were placed into heparinized tubes and centrifuged to obtain plasma. Additionally, whole brains were harvested at the 120 min time point in order to determine brain levels of test compounds. Plasma samples, brains and any remaining dosing solutions were stored at −80° C. until analyzed.
The thawed plasma samples were processed by protein precipitation using acetonitrile. Following centrifugation the supernatant was diluted appropriately and transferred to the analysis deep well plate for analysis. […]
Calibration samples and samples were analyzed by LC-MS/MS using positive electrospray ionization. […]
Samples were analyzed using multiple reaction monitoring (MRM). […]
4.0.1 and the area under the curve (AUC0-120) of NDMC was calculated. In vivo conversion to NDMC was calculated from the dose-normalized ratio of AUC0-120 of NDMC following administration of pro-drug and NDMC, respectively.

## Clc1ccc2c(c1)N=C(N1CCNCC1)c1ccccc1N2 [NDMC, N-desmethylclozapine]
Male Sprague-Dawley rats, fasted, oral 10 mg/kg (freebase) of compound administered, plasma 0-120 min
  Plasma AUC(0-120 min) of NDMC: 1.298 µM·h
rats, oral 10 mg/kg, whole brain at 120 min, n = 3
  Mean brain concentration of NDMC at 120 min (SD): 255 (56) nmol/(kg)
